Like-named read-outs stand apart in the source and are kept apart here.
Legend:
HTLV-1 = experiment: Alu-qPCR of integrated provirus in HTLV-1 infected Jurkat cells; format: cell-based; conditions: normalized to GAPDH
Description: The HTLV-1 cell-to-cell infection was performed as previously described; Jurkat T cells were counted and diluted in complete RPMI to a final concentration of 0.25 × 10^6 cells/ml and pre-treated with INSTI drugs (final concentration ranging from 0.2 pM to 2 μM) or DMSO as a control for 24 h. MT-2 cells were resuspended in RPMI at a concentration of 2 × 10^6 cells/ml and subjected to a nonlethal γ-radiation dose of 400 Gy. Cells were resuspended at a concentration of 2 × 10^6 cells/ml in serum-free RPMI supplemented with the corresponding INSTI drug. Co-culture of 0.5 × 10^6 for each cell line was carried out for 16 h, after which cells were washed in PBS and resuspended in 1 ml of depletion buffer (PBS, 0.1% FBS and 2 mM EGTA). MT-2 cells were depleted from the culture by means of anti-CD25 magnetic beads (DynabeadsTM CD25, Thermo Fisher). Depletion efficiency was confirmed via flow cytometry as described previously. Jurkat cells were cultured for 2 weeks in complete RPMI supplemented with the drugs and genomic DNA was extracted (DNeasy kit, Qiagen) and stored at −20 °C for subsequent analysis. All the experiments were done in triplicate.
The PVL was measured as previously described[9],[53],[54]. Jurkat genomic DNA was quantified and diluted to a concentration of 5 ng/μL. Real-time qPCR analysis were conducted on 20 ng of gDNA to measure the level of HTLV-1 tax and gapdh genes (Supplementary Table 5). For the standard curve, the gDNA from an HTLV-1 naturally infected T-cell clone (clone 11.50, courtesy of professor Charles Bangham), which has one copy of tax and two of gapdh, was used. The integrated provirus copy number was calculated as follows: (tax copy numbers)/(2×gapdh copy number)[53], and normalised to the DMSO-treated control which was set to 100%. The PVL data were fitted to a dose–response curve in Prism 7 and the EC50 was calculated. Alu-PCR was performed as previously described in ref. [55]. In brief, the first PCR reaction was done with Phusion polymerase starting from 80 ng of gDNA using the ALU-specific primers (Alu-F/Gag-R). The nested PCR was run diluting the amplificated product 1:50. The reaction was done as a qPCR using Gag-specific primers (Gag-R/Gag-F) and the Luna SYBR dye reaction mix (New England Biolabs). The integrated provirus copy numbers were normalised to GAPDH and Jurkat cells treated with DMSO and infected with HTLV-1 were set to 100%. Experiments were done in triplicate. […]
Supplementary Figure 6 | Integrated provirus was quantified by Alu-qPCR.
Values were normalized to GAPDH. Uninfected represents uninfected Jurkat cells, acting as negative control. Condition without any drug present (DMSO) was set as 100%. Mean values and standard deviations are shown for n = three biologically independent experiments. P-values were calculated with respect to the DMSO control using the unpaired t-test with Welch’s correction in Prism 9. P-values are two-sided.

recombinant HTLV-1 IN = biological target: T1, recombinant HTLV-1 IN (Human T-cell leukemia virus 1, UniProt P03362); experiment: In vitro integration strand transfer assay with HTLV-1 IN; format: biochemical; conditions: for HTLV-1 IN strand transfer activity (No drug = 100): INSTI at 634 nM
T1 construct: made in house
How it was run: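 Recombinant HTLV-1 IN (4 μg) with annealed 3′-processed LTR donor DNA (0.53 μM) preincubated 15 min RT with compound (screen at 634 nM) in PIPES pH 6.0, NaCl, MgCl2, ZnCl2, DTT; supercoiled plasmid target added, 1 h 37 °C. Concerted integration product quantified by agarose-gel densitometry; IC50 from dose–response fits, triplicate.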

[1] = Replicate 1, read-out: HTLV-1 IN strand transfer IC50
[2] = Replicate 2, read-out: HTLV-1 IN strand transfer IC50
[3] = Replicate 3, read-out: HTLV-1 IN strand transfer IC50
[4] = integrase strand-transfer drug titration, n = 3, read-out: HTLV-1 IC50 ± stdev

T1 sequence (P03362 1168-1462): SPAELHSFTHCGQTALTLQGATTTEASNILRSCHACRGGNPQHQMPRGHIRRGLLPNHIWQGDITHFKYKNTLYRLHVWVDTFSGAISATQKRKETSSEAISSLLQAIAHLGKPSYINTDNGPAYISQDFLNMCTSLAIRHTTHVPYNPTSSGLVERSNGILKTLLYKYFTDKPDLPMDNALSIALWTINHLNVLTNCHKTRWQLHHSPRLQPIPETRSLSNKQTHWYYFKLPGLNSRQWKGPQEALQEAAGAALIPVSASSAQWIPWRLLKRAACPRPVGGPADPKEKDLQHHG

Row | SMILES | Integrated provirus by Alu-qPCR (DMSO = 100%) (HTLV-1; Replicate 1) | Integrated provirus by Alu-qPCR (DMSO = 100%) (HTLV-1; Replicate 2) | Integrated provirus by Alu-qPCR (DMSO = 100%) (HTLV-1; Replicate 3) | HTLV-1 IN strand transfer activity (No drug = 100) (recombinant HTLV-1 IN; Replicate 1) | HTLV-1 IN strand transfer activity (No drug = 100) (recombinant HTLV-1 IN; Replicate 2) | HTLV-1 IN strand transfer activity (No drug = 100) (recombinant HTLV-1 IN; Replicate 3) | IC50 (recombinant HTLV-1 IN; [1]) | IC50 (recombinant HTLV-1 IN; [2]) | IC50 (recombinant HTLV-1 IN; [3]) | inhibition of HTLV-1 IN in the screen compared with RAL (recombinant HTLV-1 IN; each compound at 634 nM) | IC50 (recombinant HTLV-1 IN; [4])
1 | CC(C)n1c(C(=O)N(C)C)c2c(c(O)c1=O)C(=O)N(Cc1ccc(F)c(Cl)c1)CC2 [XZ236, 6-(3-chloro-4-fluorobenzyl)-4-hydroxy-2-isopropyl-N,N-dimethyl-3,5-dioxo-2,3,5,6,7,8-hexahydro-2,6-naphthyridine-1-carboxamide, reference compound] | 4.2364% | 4.296% | 2.243% | 9.7581% | 22.4849% | 26.0036% | 130 nM | 504 nM | 301 nM | outperformed RAL | 322 ± 121 nM
2 | Nc1c(C(=O)NCc2ccc(F)cc2F)c(=O)n(O)c2ncc(CCCO)cc12 [XZ423, 4-amino-N-(2,4-difluorobenzyl)-1-hydroxy-6-(3-hydroxypropyl)-2-oxo-1,2-dihydro-1,8-naphthyridine-3-carboxamide] | 2.519% | 0.166% | 0.06882% | 5.722% | 15.1459% | 14.6599% | 144 nM | 185 nM | 155 nM |  | 155 ± 33.5 nM
3 | Nc1c(C(=O)NCc2ccc(F)cc2F)c(=O)n(O)c2ncc(CCS(=O)(=O)c3ccccc3)cc12 [XZ446, 4-amino-N-(2,4-difluorobenzyl)-1-hydroxy-2-oxo-6-(2-(phenylsulfonyl)ethyl)-1,2-dihydro-1,8-naphthyridine-3-carboxamide] | 13.9354% | 1.128% | 3.891% | 11.4924% | 20.4545% | 15.1675% | 143 nM | 85 nM | 126 nM |  | 115 ± 9.5 nM
4 | Nc1c(C(=O)NCc2ccc(F)cc2F)c(=O)n(O)c2ncc(CCC(=O)NCCO)cc12 [XZ448, 4-amino-N-(2,4-difluorobenzyl)-1-hydroxy-6-(3-((2-hydroxyethyl)amino)-3-oxopropyl)-2-oxo-1,2-dihydro-1,8-naphthyridine-3-carboxamide] | 25.215% | 64.5778% | 27.0471% | 5.498% | 23.674% | 16.1231% | 99 nM | 227 nM | 108 nM |  | 132 ± 29.7 nM
5 | CN(C)C(=O)CCc1cnc2c(c1)c(N)c(C(=O)NCc1ccc(F)cc1F)c(=O)n2O [XZ450, 4-amino-N-(2,4-difluorobenzyl)-6-(3-(dimethylamino)-3-oxopropyl)-1-hydroxy-2-oxo-1,2-dihydro-1,8-naphthyridine-3-carboxamide] | 0.2536% | 0.5264% | 0.2229% | 10.2814% | 19.561% | 9.5729% | 115 nM | 180 nM | 76 nM |  | 120 ± 36.1 nM

— PMC8370991, “Structural basis for the inhibition of HTLV-1 integration inferred from cryo-EM deltaretroviral intasome structures” (Nature Communications, 2021)
